The source of these data is patent US20060106028A1, “Polycyclic aromatics and derivatives thereof and processes for their preparation” (priority 2004, published 2006).

Data set [1] relates to PC-3 (prostate adenocarcinoma). Nature of the data set: In vitro tumor growth inhibition (GI50, propidium iodide). To be noted: 96 hrs. Format: cell-based.
The subject of data set [2] is Streptococcus pneumoniae (LSPQ 3412). Nature of the data set: Antibacterial activity, MIC (NCCLS M7-A5). It is filed as cell-based. To be noted: MH medium +2% lysed horse blood.
For data set [3], the system named is MDA-MB-231 (mammary gland adenocarcinoma). Nature of the data set: In vitro tumor growth inhibition (GI50, propidium iodide). Format: cell-based. To be noted: Homo sapiens, 96 hrs.
The nature of data set [4]: In vivo pharmacokinetic profile (plasma levels). Details: species or system CD-1 mice. To be noted: CD-1, mouse, 25 mg/kg single dose, CD1 female mice. On the procedure: Pharmacokinetic profile of Compound 1 was determined in CD-1 mice (FIG. 1). CD1 female mice (6 weeks of age) received a single intravenous or intraperitoneal dose of Compound 1 (25 mg/kg; 5 mL/kg) in […]/4.5% Glycocholate/5% EtOH formulation. Blood was collected into EDTA-containing tubes by cardiac puncture. Quantification of Compound 1 plasma levels was done by high performance liquid chromatographic-mass spectrometric method. Cmax values represent the maximum observed plasma concentration and AUC represents the area under the plasma concentration versus time curve (Table 6).

In brackets after ≈: the same amount, converted by molar mass.

By GI50 is commonly meant the concentration at which growth is held to half of that of the control. A lower GI50 goes with greater sensitivity of the cells. Broadly, the MIC is the smallest concentration in the dilution series that meets the test's criterion for growth inhibition. Low readings indicate greater potency, high ones weaker potency. Usually AUC stands for the area under the concentration-time curve, a measure of exposure. Higher therefore signals more exposure. In general, Cmax refers to the highest concentration seen after dosing. As for `CCC(C)c1cc2c(=O)c3ccc4c(OC)c5c(=O)c6c(O)ccc(O)c6c(=O)c5c(O)c4c3c(=O)c2c(=O)n1CC(=O)N1CC(C(=O)O)NC(=O)C1C` (stereo not shown) [Compound 1], the GI50 is 11.1 µM in data set [1] and 14.6 µM in data set [3]. In addition, the MIC in data set [2] was 0.5 to 1 µg/mL (≈ 0.678 to 1.36 µM). In addition, the results for the exposure (AUC) in data set [4] (ip) and in data set [4] (iv) were 649 µg·h/mL and 1180 µg·h/mL, respectively. The results for the maximum concentration (Cmax) in data set [4] (ip) and in data set [4] (iv) were 111 µg/mL and 227 µg/mL, respectively.
